# Values quoted from earlier work in paper PMC11376147 (Chemical Science, 2024).
# Molecular target: T1, DC-SIGN ECD (Homo sapiens, UniProt Q9NNX6)
# T1 sequence (Q9NNX6 66-404): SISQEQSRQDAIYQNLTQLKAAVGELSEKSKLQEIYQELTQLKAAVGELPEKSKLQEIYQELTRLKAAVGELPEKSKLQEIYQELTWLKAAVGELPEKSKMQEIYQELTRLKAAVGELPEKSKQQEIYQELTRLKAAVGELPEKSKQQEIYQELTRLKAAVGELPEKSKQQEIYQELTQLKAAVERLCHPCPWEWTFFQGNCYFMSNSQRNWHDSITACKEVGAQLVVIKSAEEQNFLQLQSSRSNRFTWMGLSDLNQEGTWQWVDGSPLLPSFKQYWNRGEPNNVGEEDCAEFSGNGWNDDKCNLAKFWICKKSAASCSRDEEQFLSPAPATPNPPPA
# Settings: read-out: IC50 DC-SIGN; SPR inhibition, Spike surface; cited from earlier work
smiles,measurement,value
OC[C@H]1OC(O)[C@@H](O)[C@@H](O)[C@@H]1O (stereo partly shown) [mannose],IC50,3000 µM
